Laboratory results: PMC8161026, “Synthesis and Anticancer Activity Evaluation of 5-[2-Chloro-3-(4-nitrophenyl)-2-propenylidene]-4-thiazolidinones” (Molecules, 2021)

Legend:
Breast Cancer subpanel = assay: cells
Procedure: (§1) At the first stage of biological activity study, the antitumor activity screening of the selected compounds 2b, 2c, 2f, 2h, and 2j was performed according to the NCI DTP (USA) standard protocol at the concentrations ranging from 10^−4 to 10^−8 M toward 60 tumor cell lines. The percentage of growth was evaluated spectrophotometrically versus controls not treated with test agents after 48 h exposure and using SRB protein assay to estimate cell viability or growth. Dose–response parameters were calculated for each cell line: GI50—molar concentration of the compound that inhibits 50% net cell growth; TGI—molar concentration of the compound leading to the total inhibition; and LC50—molar concentration of the compound leading to 50% net cell death. Furthermore, mean graph midpoints (MG_MID) were calculated for each of the parameters, giving an average activity parameter over all cell lines for the tested compound. For the MG_MID calculation, insensitive cell lines were included with the highest concentration tested.
(§2) The selectivity index (SI) obtained by dividing the full panel MG-MID (mM) of the tested compound by their individual subpanel MG-MID (mM) was considered as a measure of selectivity of anticancer activity (Table 3).
(§3) Primary anticancer assay was performed on a panel of approximately sixty human tumor cell lines derived from nine neoplastic diseases, in accordance with the protocol of the Drug Evaluation Branch, National Cancer Institute, Bethesda. Tested compounds were added to the culture at a single concentration (10^−5 M) and the cultures were incubated for 48 h. End point determinations were made with a protein binding dye, sulforhodamine B (SRB). […] The percentage growth was evaluated spectrophotometrically versus controls not treated with test agents.
(§4) Dose–response parameters (GI50, TGI, LC50) were calculated for each compound. […] The drug concentration resulting in total growth inhibition (TGI) was calculated from Ti = Tz. The LC50 (concentration of drug resulting in a 50% reduction in the measured protein at the end of the drug treatment as compared to that at the beginning) indicating a net loss of cells following treatment was calculated from [(Ti − Tz)/Tz] × 100 = −50 (2). Values were calculated for each of these parameters if the level of activity was reached; however, if the effect was not reached or was excessive, the value for that parameter was expressed as more or less than the maximum or minimum concentration tested.

CNS Cancer subpanel = assay: cells
Procedure: as §1, §2, §3, §4

Colon Cancer subpanel = assay: cells
Procedure: as §1, §2, §3, §4

Leukemia subpanel = assay: cells
Procedure: as §1, §2, §3, §4

Melanoma subpanel = assay: cells
Procedure: as §1, §2, §3, §4

[1] = system: Non-Small Cell Lung Cancer subpanel; assay: cells
Procedure: as §1, §2, §3, §4

Ovarian Cancer subpanel = assay: cells
Procedure: as §1, §2, §3, §4

Prostate Cancer subpanel = assay: cells
Procedure: as §1, §2, §3, §4

Renal Cancer subpanel = assay: cells
Procedure: as §1, §2, §3, §4

60 tumor cell lines = assay: NCI60 full panel MG_MID
Procedure: as §1, §3, §4

MOLT-4 [2] = settings: MOLT-4 (Leukemia), 48 h, SRB
MOLT-4 [3] = assay: cells; settings: Homo sapiens, MOLT-4, 48 h
T-47D [4] = settings: T-47D (Breast Cancer), 48 h, SRB
RPMI-8226 = assay: cells; settings: Homo sapiens, RPMI-8226, 48 h
DU-145 = assay: cells; settings: Homo sapiens, DU-145, 48 h
T-47D [5] = assay: cells; settings: Homo sapiens, T47D, 48 h
Colo 205 = assay: NCI DTP 60 cell line screen, SRB
[6] = Homo sapiens, read-out: MG_MID, GI50
[7] = Homo sapiens, read-out: MG_MID, LC50
[8] = full panel MG_MID / Breast Cancer subpanel MG_MID
[9] = full panel MG_MID / CNS Cancer subpanel MG_MID
[10] = full panel MG_MID / Colon Cancer subpanel MG_MID
[11] = full panel MG_MID / Leukemia subpanel MG_MID
[12] = full panel MG_MID / Melanoma subpanel MG_MID
[13] = full panel MG_MID / Non-Small Cell Lung Cancer subpanel MG_MID
[14] = full panel MG_MID / Ovarian Cancer subpanel MG_MID
[15] = full panel MG_MID / Prostate Cancer subpanel MG_MID
[16] = full panel MG_MID / Renal Cancer subpanel MG_MID

## O=C1/C(=C/C(Cl)=C/c2ccc([N+](=O)[O-])cc2)SC(=S)N1/N=C\C(Cl)=C\c1ccc([N+](=O)[O-])cc1 [Compound 2c, 5-[(Z,2Z)-2-Chloro-3-(4-nitrophenyl)-2-propenylidene]-3-[(Z,2Z)-2-chloro-3-(4-nitrophenyl)-2-propenylideneamino]-2-thioxo-4-thiazolidinone]
Breast Cancer subpanel; Breast Cancer panel mean
  MG_MID, TGI: 51.3 µM
Breast Cancer subpanel; [6]
  GI50: 17.5 µM
Breast Cancer subpanel; [7]
  CC50: 90.2 µM
Breast Cancer subpanel; [8]
  SI (selectivity index), GI50: 1.03
  SI (selectivity index), LC50: 0.91
  SI (selectivity index), TGI: 0.84
CNS Cancer subpanel; CNS Cancer panel mean
  MG_MID, TGI: 52.1 µM
CNS Cancer subpanel; [6]
  GI50: 23.4 µM
CNS Cancer subpanel; [7]
  CC50: 88.6 µM
CNS Cancer subpanel; [9]
  SI (selectivity index), GI50: 0.77
  SI (selectivity index), LC50: 0.92
  SI (selectivity index), TGI: 0.83
Colon Cancer subpanel; Colon Cancer panel mean
  MG_MID, TGI: 59.7 µM
Colon Cancer subpanel; [6]
  GI50: 20.7 µM
Colon Cancer subpanel; [7]
  CC50: 77.8 µM
Colon Cancer subpanel; [10]
  SI (selectivity index), GI50: 0.87
  SI (selectivity index), LC50: 1.05
  SI (selectivity index), TGI: 0.72
Leukemia subpanel; [6]
  GI50: 3.83 µM
Leukemia subpanel; [7]
  CC50: 90 µM
Leukemia subpanel; Leukemia panel mean
  MG_MID, TGI: 18.6 µM
Leukemia subpanel; [11]
  SI (selectivity index), GI50: 4.70
  SI (selectivity index), LC50: 0.91
  SI (selectivity index), TGI: 2.32
Melanoma subpanel; [6]
  GI50: 17.7 µM
Melanoma subpanel; [7]
  CC50: 74.3 µM
Melanoma subpanel; Melanoma panel mean
  MG_MID, TGI: 38.0 µM
Melanoma subpanel; [12]
  SI (selectivity index), GI50: 1.02
  SI (selectivity index), LC50: 1.10
  SI (selectivity index), TGI: 1.13
[1]; [6]
  GI50: 25.9 µM
[1]; [7]
  CC50: 83 µM
[1]; Non-Small Cell Lung Cancer panel mean
  MG_MID, TGI: 44.8 µM
[1]; [13]
  SI (selectivity index), GI50: 0.69
  SI (selectivity index), LC50: 0.98
  SI (selectivity index), TGI: 0.96
Ovarian Cancer subpanel; [6]
  GI50: 18.2 µM
Ovarian Cancer subpanel; [7]
  CC50: 59 µM
Ovarian Cancer subpanel; Ovarian Cancer panel mean
  MG_MID, TGI: 36.2 µM
Ovarian Cancer subpanel; [14]
  SI (selectivity index), GI50: 0.99
  SI (selectivity index), LC50: 1.38
  SI (selectivity index), TGI: 1.19
Prostate Cancer subpanel; [6]
  GI50: 14.9 µM
Prostate Cancer subpanel; [15]
  SI (selectivity index), GI50: 1.21
  SI (selectivity index), LC50: 1.09
  SI (selectivity index), TGI: 0.95
Renal Cancer subpanel; [6]
  GI50: 16.9 µM
Renal Cancer subpanel; [7]
  CC50: 80.1 µM
Renal Cancer subpanel; Renal Cancer panel mean
  MG_MID, TGI: 43.3 µM
Renal Cancer subpanel; [16]
  SI (selectivity index), GI50: 1.07
  SI (selectivity index), LC50: 1.02
  SI (selectivity index), TGI: 1.00
60 tumor cell lines; Homo sapiens, read-out: 60 lines MG_MID, GI50
  GI50: 18 µM
60 tumor cell lines; Homo sapiens, read-out: 60 lines MG_MID, LC50
  CC50: 81.7 µM
60 tumor cell lines; mean over all cell lines
  60 lines MG_MID, TGI: 43.1 µM
MOLT-4 [2]
  TGI: 8.95 µM
MOLT-4 [3]
  GI50: 3.2 µM
MOLT-4 [3]; read-out: LC50
  CC50: 52.5 µM
T-47D [4]
  TGI: 65.3 µM
RPMI-8226
  GI50: 2.38 µM
RPMI-8226; read-out: LC50
  CC50: > 100 µM
DU-145
  GI50: 21.7 µM
DU-145; read-out: LC50
  CC50: > 100 µM
T-47D [5]
  GI50: 24.5 µM
T-47D [5]; read-out: LC50
  CC50: > 100 µM
Colo 205; Colo 205 (Colon Cancer), 48 h, SRB
  TGI: > 100 µM
Colo 205; Homo sapiens, COLO 205, 48 h
  GI50: 56.2 µM
Colo 205; Homo sapiens, COLO 205, 48 h, read-out: LC50
  CC50: > 100 µM
